Patent US20180110757A1, “METHODS OF TREATING PRURITIS AND PAIN” (The Regents of the University of California, priority 2016, published 2018)

How the values were obtained:
S1PR3 = target: T1, S1PR3 (Mus musculus, UniProt Q9Z0U9); test: Ratiometric calcium imaging in cultured DRG neurons; format: cell-based, mice; details: for calcium responses in cultured DRG neurons: S1P 100 nM, CYM 100 μM
T1 construct: attenuates S1P-evoked calcium responses in wild-type DRG sensory neurons; endogenous in cells; host or cells: cultured mouse dorsal root ganglion (DRG) neurons, wild-type
T1 sequence (Q9Z0U9 whole entry): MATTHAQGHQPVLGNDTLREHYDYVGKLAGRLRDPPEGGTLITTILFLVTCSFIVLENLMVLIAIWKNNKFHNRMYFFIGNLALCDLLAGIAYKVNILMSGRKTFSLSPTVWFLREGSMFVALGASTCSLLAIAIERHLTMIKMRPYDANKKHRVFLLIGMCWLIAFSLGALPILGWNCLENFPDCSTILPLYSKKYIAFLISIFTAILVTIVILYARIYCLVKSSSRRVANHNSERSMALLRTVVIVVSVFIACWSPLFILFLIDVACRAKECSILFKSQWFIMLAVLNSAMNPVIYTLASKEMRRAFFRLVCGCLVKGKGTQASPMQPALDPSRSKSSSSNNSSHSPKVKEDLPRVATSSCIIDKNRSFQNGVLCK
Protocol: FIG. 1A-1G. A. Graphical model illustrating the role of S1PR3-evoked itch in somatosensory neurons of the dorsal root ganglion (DRG). […] C. […] D. Venn diagram displaying overlap of S1P responsive neurons from ratiometric calcium imaging with known pruritogens and algogens in cultured DRG neurons. Pruritogens: HIS=histamine, CQ=chloroquine. Algogens: CAP=capsaicin, AITC=allyl-isothiocyanate. Data were collected from n>4,000 neurons. E. Scratching behavioral data for mice injected with 200 nM S1P or 0.1% methanol-PBS vehicle intradermally into the rostral back. WT=wild-type, A1 −/−=Trpa1-deficient knockout mice. Scratching behaviors were recorded 30 minutes post injection. […] G. S1pr3 transcript levels were quantified using qRT-PCR from skin of mice treated with vitamin D or ethanol control for 7 days to induce an atopic dermatitis-like condition. Data were normalized to Gapdh housekeeping gene. For all data, one way ANOVA was performed with a Tukey-Kramer post hoc statistical test. Tukey-Kramer values are reported and only p<0.05 were considered significant, ***=p<0.001. n.s.=not significant.

mice = test: Scratching behavior after intradermal injection into the rostral back; format: in vivo
[1] = test system: KCNQ2/3 potassium channels (M channels); test: Excitability of mechanical nociceptor DRG neurons in vitro; format: cell-based; details: via S1PR3, through closure of KCNQ2/3 potassium channels
Source text: In situ RNA hybridization studies and protein localization studies indicate that S1pr3 is expressed in thermal nociceptors and mechanical nociceptors, as well as nociceptive free nerve endings in skin.

wild-type mice [2] = test: Complete Freund's Adjuvant (CFA) model of chronic inflammation; format: in vivo
Source text: S1PR3 knockout mice treated with CFA fail to develop thermal hypersensitivity and display normal mechanical sensitivity due to their baseline defect in mechanical pain sensation. They also display lessened paw swelling, possibly due to decreased neurogenic inflammation. […] Loss of S1P production with acute SKI II injection into the CFA-treated paw also reverses CFA thermal hypersensitivity.

wild-type mice [3] = test: Mechanical pain sensitivity (von Frey, tactile stimuli) in healthy wild-type mice; format: in vivo
Source text: Likewise, in S1pr3^−/− mice, radiant heat withdrawal latencies were normal.
Pharmacological manipulation of S1PR3 or reduction of S1P levels lessens mechanical pain sensation in wild-type mice without affecting innocuous touch.
Blockade of S1PR1 with the selective antagonist W146 has no effect on mechanosensitivity. Tonic levels of S1P in the skin are responsible for S1PR3-mediated mechanical pain sensation.

[4] = S1PR3-deficient (S1PR3 −/−) mice
[5] = wildtype mice (WT), compared to physiological saline control
[6] = wild-type mice, delivered to the hindpaw after induction of CFA pain
[7] = wild-type mice, intradermal administration

**Q.** For `O=C(c1cc(C2CC2)on1)N(C1CCCCC1)C1CCCCC1` [CYM 5541], which “calcium responses in cultured DRG neurons” value (S1PR3; [4]) is on record?
**A.** lack calcium responses

**Q.** And the “calcium responses in cultured DRG neurons” value (S1PR3; [5])?
**A.** robust responses

**Q.** For `CCCCCCCCCCCCC/C=C/[C@@H](O)[C@@H](N)COP(=O)(O)O` [S1P, Sphingosine-1-phosphate], which “scratching behavior vs. vehicle” value (mice; S1PR3-deficient mice (S1PR3 −/−), 200 nM intradermally, 30 minutes post injection) is on record?
**A.** no difference

**Q.** And the scratching behavior (mice; mice (FIG. 1E), S1PR3-dependent opening of TRPA1)?
**A.** leads to scratching behavior in mice

**Q.** And the “calcium responses in cultured DRG neurons” value (S1PR3; [4])?
**A.** lack calcium responses

**Q.** And the “calcium responses in cultured DRG neurons” value (S1PR3; [5])?
**A.** robust responses

**Q.** And the “excitability of mechanical nociceptor DRG neurons” value [1]?
**A.** increases the excitability

**Q.** Which results are given for `Oc1ccc(Nc2nc(-c3ccc(Cl)cc3)cs2)cc1` [SKI II, 2-(p-hydroxyanilino)-4-(p-chlorophenyl)thiazole]?
**A.** CFA thermal hypersensitivity (wild-type mice [2]; acute injection into the CFA-treated paw): reverses; mechanical pain sensitivity after block of local production of S1P (wild-type mice [3]; injection of 50 μM): mechanical pain sensitivity was dependent on local S1P in the skin

**Q.** `CC(C)(C)C(=O)C(=Nc1ccc(Cl)cc1)NNc1ccc(Cl)cc1` [TY 52156, N-(4-Chlorophenyl)-3,3-dimethyl-2-oxobutanimidic 2-(4-chlorophenyl) hydrazide] was tested. Which mechanical thresholds (wild-type mice [2]; [6]) did it give?
**A.** to pre-CFA, baseline levels

**Q.** And the thermal thresholds (wild-type mice [2]; [6])?
**A.** to pre-CFA, baseline levels

**Q.** What about the mechanosensitivity (wild-type mice [3]; [7]) of the same compound?
**A.** promotes mechanical hyposensitivity

**Q.** What about the “responsiveness to noxious tactile stimuli” value (wild-type mice [3]; [7]) of the same compound?
**A.** decreases responsiveness

**Q.** What about the “effect on S1P-evoked calcium responses” value (S1PR3; wild-type DRG sensory neurons) of the same compound?
**A.** attenuates

**Q.** What about the “effect on the effects of the allosteric agonist CYM (calcium imaging)” value (S1PR3; wild-type DRG sensory neurons) of the same compound?
**A.** does not block

**Q.** Which mechanosensitivity (wild-type mice [3]; [7]) does the source give for `CCCCCCc1cccc(NC(=O)[C@H](N)CCP(=O)(O)O)c1` [W146] here?
**A.** no effect
